Assay results from patent US20250163052A1, “cGAS INHIBITORS AND USES THEREOF” (Cornell University, priority 2022, published 2025).

Tests used:
[1] = Metabolic stability in mouse liver microsomes; details: for Remaining (NCF = 60 min) / Remaining (T = 60 min): mouse liver microsomes; for Remaining (NCF = 60 min): no co-factor (no NADPH); for Remaining (T = 60 min): 60 min with NADPH
[2] = Metabolic stability in human liver microsomes; details: for Remaining (NCF = 60 min) / Remaining (T = 60 min): human liver microsomes; for Remaining (NCF = 60 min): no co-factor (no NADPH); for Remaining (T = 60 min): 60 min with NADPH
m-cGAS = m-cGAS (Mus musculus, UniProt Q8C6L5); test: Cell-free mouse cGAS enzyme inhibition assay (ATP depletion, Kinase-Glo Max); type: biochemical; details: 1 h; for inhibition at 1 µM: read-out: m-cGAS, conc. 1 μM; for inhibition at 10 µM: read-out: m-cGAS, conc. 10 μM
NFkB-SEAP = test: THP1-Dual cells transfected with DNA, nfkb expression (Quantiblue); type: cell-based; details: Homo sapiens; for inhibition at 10 µM: THP-1, 10 μM; for inhibition at 30 µM: THP-1, 30 μM
Protocol: Evaluation of active cGAS inhibitors in THP1 cells (Table 3). Cellular activity of all compounds (in Table 3) was determined using THP1-Dual™ cells as described (Lama et. al., 2019). THP1-Dual™ cells (Invivogen) (50000 cells in 100 μl media) were seeded into each well of a 96-well plate and treated with compounds at various dilution for 4 hours. Subsequently, cells were transfected with DNA (2 ug/ml) and lipofectamine and incubate the cells were incubated overnight. Ifnb expression was measured in cell supernatant using Quantiluc, nfkb expression was determined using Quantiblue, and cell viability using Promega® CellTiter-Glo®.

IFNB = test: THP1-Dual cells transfected with DNA, Ifnb expression (Quantiluc); type: cell-based; details: Homo sapiens; for inhibition at 10 µM: THP-1, 10 μM; for inhibition at 30 µM: THP-1, 30 μM
Procedure, shortened: (§1)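 Readouts after overnight incubation: Quantiluc luminescence for Ifnb, Quantiblue for nfkb (both in supernatant) and CellTiter-Glo for viability. Before the DNA stimulus (2 ug/ml, lipofectamine transfection), THP1-Dual cells received compound at several dilutions for 4 h.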

h-cGAS = h-cGAS (Homo sapiens, UniProt Q8N884); test: Cell-free human cGAS enzyme inhibition assay (ATP depletion, Kinase-Glo Max); type: biochemical; details: 3 h; for inhibition at 1 µM: read-out: h-cGAS, conc. 1 μM; for inhibition at 10 µM: read-out: h-cGAS, conc. 10 μM
THP1 cells = test: THP1-Dual cells, cell viability (CellTiter-Glo); type: cell-based
Procedure, shortened: as §1

m-cGAS, sequence (Q8C6L5 whole entry): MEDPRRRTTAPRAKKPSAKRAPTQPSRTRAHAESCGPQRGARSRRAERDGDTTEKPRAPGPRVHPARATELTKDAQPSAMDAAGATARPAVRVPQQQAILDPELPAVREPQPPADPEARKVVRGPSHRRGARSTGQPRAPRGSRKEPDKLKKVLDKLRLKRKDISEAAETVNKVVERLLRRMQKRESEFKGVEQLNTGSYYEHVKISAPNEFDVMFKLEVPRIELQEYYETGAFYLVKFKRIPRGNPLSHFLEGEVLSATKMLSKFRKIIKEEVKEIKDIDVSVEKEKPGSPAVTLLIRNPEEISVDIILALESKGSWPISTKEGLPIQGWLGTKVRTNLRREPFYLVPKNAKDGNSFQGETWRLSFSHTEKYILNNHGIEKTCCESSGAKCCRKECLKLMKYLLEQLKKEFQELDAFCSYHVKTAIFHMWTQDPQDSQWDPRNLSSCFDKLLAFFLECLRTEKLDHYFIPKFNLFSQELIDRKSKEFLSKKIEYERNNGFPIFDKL
h-cGAS, sequence (Q8N884 whole entry): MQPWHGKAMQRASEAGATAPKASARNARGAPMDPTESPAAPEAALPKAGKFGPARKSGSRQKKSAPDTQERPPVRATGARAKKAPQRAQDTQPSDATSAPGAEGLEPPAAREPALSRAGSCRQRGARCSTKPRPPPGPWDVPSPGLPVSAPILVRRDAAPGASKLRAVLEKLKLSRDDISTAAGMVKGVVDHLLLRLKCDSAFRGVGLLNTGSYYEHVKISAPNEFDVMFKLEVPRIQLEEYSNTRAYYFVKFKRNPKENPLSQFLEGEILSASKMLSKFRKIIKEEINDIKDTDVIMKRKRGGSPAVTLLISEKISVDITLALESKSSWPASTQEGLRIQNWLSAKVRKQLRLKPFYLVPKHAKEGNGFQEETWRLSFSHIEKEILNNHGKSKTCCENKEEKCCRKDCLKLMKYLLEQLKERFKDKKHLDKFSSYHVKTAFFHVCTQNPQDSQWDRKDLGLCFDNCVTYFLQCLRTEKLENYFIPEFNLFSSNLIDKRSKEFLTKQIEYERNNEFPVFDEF

Row | SMILES | inhibition at 1 µM (m-cGAS) | inhibition at 10 µM (m-cGAS) | inhibition at 10 µM (NFkB-SEAP) | inhibition at 30 µM (NFkB-SEAP) | inhibition at 10 µM (IFNB) | inhibition at 30 µM (IFNB) | inhibition at 1 µM (h-cGAS) | inhibition at 10 µM (h-cGAS) | Cell viability 10 μM (THP1 cells) | Cell viability 30 μM (THP1 cells) | other results
1 | O=C(O)Cc1ccccc1Nc1c(Cl)cccc1Cl [Diclofenac, reference compound] |  |  |  |  |  |  |  |  |  |  | Remaining (NCF = 60 min) [1]: 100.4%; Remaining (T = 60 min) [1]: 33.1%; half-life ([1]; mouse, liver microsomes): 38 min; microsomal CLint ([1]; mouse, liver microsomes): 36.5 µL/min/mg; Remaining (NCF = 60 min) [2]: 114.8%; Remaining (T = 60 min) [2]: 0.0%; CLint(mic) ([2]; human, liver microsomes): 323.6 µL/min/mg; T½ ([2]; human, liver microsomes): 4.3 min
2 | Cn1cc(-c2cc(Cl)c(Cl)c3sc4c(c23)CN(C(=O)CN)CC4)cn1 [Compound 54] | 0 to 24% | 50 to 74% | 75 to 100% | 75 to 100% | 75 to 100% | 75 to 100% | 50 to 74% | 75 to 100% | ++ (+, ++, and +++ mean the compound respectively shows 25-49%; 50-74%; or 75-100% viability to cells) | − (Cell viability <24%, in THP1 cells is expressed as “−”) | Remaining (NCF = 60 min) [1]: 94.5%; Remaining (T = 60 min) [1]: 82.0%; CLint scaled ([1]; mouse, liver microsomes): < 38 mL/min/kg; half-life ([1]; mouse, liver microsomes): > 145 min; microsomal CLint ([1]; mouse, liver microsomes): < 9.6 µL/min/mg; Remaining (NCF = 60 min) [2]: 129.8%; Remaining (T = 60 min) [2]: 85.4%; CLint scaled ([2]; human, liver microsomes): < 8.6 mL/min/kg; half-life ([2]; human, liver microsomes): > 145 min; microsomal CLint ([2]; human, liver microsomes): < 9.6 µL/min/mg
3 | C[C@]12CC[C@H]3[C@@H](CCC4=CC(=O)CC[C@@]43C)[C@@H]1CC[C@@H]2O [Testosterone, reference compound] |  |  |  |  |  |  |  |  |  |  | Remaining (NCF = 60 min) [1]: 88.7%; Remaining (T = 60 min) [1]: 0.0%; CLint scaled ([1]; mouse, liver microsomes): 1490 mL/min/kg; CLint(mic) ([1]; mouse, liver microsomes): 375.9 µL/min/mg; T½ ([1]; mouse, liver microsomes): 3.7 min; Remaining (NCF = 60 min) [2]: 109.9%; Remaining (T = 60 min) [2]: 4.0%; CLint scaled ([2]; human, liver microsomes): 98.2 mL/min/kg
4 | Cc1ccn(-c2cc(Cl)c(Cl)c3sc4c(c23)CCN(C(=O)CN)C4)n1 [Compound 96] |  | 25 to 49% | < 24% | < 24% | < 24% | < 24% | 0 to 24% | 25 to 49% | +++ (+, ++, and +++ mean the compound respectively shows 25-49%; 50-74%; or 75-100% viability to cells) | +++ (+, ++, and +++ mean the compound respectively shows 25-49%; 50-74%; or 75-100% viability to cells) | 
5 | NCC(=O)N1CCc2c(sc3c(Cl)c(Cl)cc(-c4cc[nH]n4)c23)C1 [Compound 77] | 25 to 49% | 75 to 100% | 50 to 74% | 75 to 100% | 25 to 49% | 75 to 100% | 25 to 49% | 50 to 74% | +++ (+, ++, and +++ mean the compound respectively shows 25-49%; 50-74%; or 75-100% viability to cells) | − (Cell viability <24%, in THP1 cells is expressed as “−”) | 
6 | NCC(=O)N1CCc2c(sc3c(Cl)c(Cl)cc(-c4ccc(N)nc4)c23)C1 [Compound 75] |  | 75 to 100% | < 24% | 75 to 100% | 75 to 100% | 75 to 100% | 0 to 24% | 50 to 74% | +++ (+, ++, and +++ mean the compound respectively shows 25-49%; 50-74%; or 75-100% viability to cells) | +++ (+, ++, and +++ mean the compound respectively shows 25-49%; 50-74%; or 75-100% viability to cells) | 
7 | Cn1ncc(-c2cc(Cl)c(Cl)c3sc4c(c23)CCN(C(=O)CN)C4)n1 [Compound 92] | 25 to 49% | 75 to 100% | 75 to 100% | 75 to 100% | 75 to 100% | 75 to 100% | 25 to 49% | 50 to 74% | ++ (+, ++, and +++ mean the compound respectively shows 25-49%; 50-74%; or 75-100% viability to cells) | − (Cell viability <24%, in THP1 cells is expressed as “−”) | 
8 | CNc1cnn(-c2cc(Cl)c(Cl)c3sc4c(c23)CCN(C(=O)CN)C4)c1 [Compound 95] |  | 50 to 74% | 25 to 49% | 25 to 49% | < 24% | 25 to 49% |  | 50 to 74% | +++ (+, ++, and +++ mean the compound respectively shows 25-49%; 50-74%; or 75-100% viability to cells) | +++ (+, ++, and +++ mean the compound respectively shows 25-49%; 50-74%; or 75-100% viability to cells) | 
9 | NCC(=O)N1CCc2c(sc3c(Cl)c(Cl)cc(-c4ncccn4)c23)C1 [Compound 89] | 0 to 24% | 25 to 49% | < 24% | 50 to 74% | < 24% | 50 to 74% | 0 to 24% | 50 to 74% | +++ (+, ++, and +++ mean the compound respectively shows 25-49%; 50-74%; or 75-100% viability to cells) | ++ (+, ++, and +++ mean the compound respectively shows 25-49%; 50-74%; or 75-100% viability to cells) | 
10 | CN1c2c(Cl)c(Cl)cc(-c3cnn(C)c3)c2C2CN(C(=O)CN)CCC21 (centres unmarked) [Compound 12] |  | 0 to 24% | < 24% |  | < 24% |  | 0 to 24% | 75 to 100% | +++ (+, ++, and +++ mean the compound respectively shows 25-49%; 50-74%; or 75-100% viability to cells) |  | 
11 | NCC(=O)N1CCc2c(sc3c(Cl)c(Cl)cc(-c4cncnc4)c23)C1 [Compound 73] | 0 to 24% | 50 to 74% | < 24% | 75 to 100% | < 24% | 75 to 100% | 0 to 24% | 50 to 74% | +++ (+, ++, and +++ mean the compound respectively shows 25-49%; 50-74%; or 75-100% viability to cells) | − (Cell viability <24%, in THP1 cells is expressed as “−”) | 
12 | Cn1ccc(-c2cc(Cl)c(Cl)c3oc4c(c23)CN(C(=O)CO)CC4)n1 [Compound 24] | 0 to 24% | 50 to 74% | < 24% |  | 50 to 74% | 75 to 100% | 50 to 74% | 75 to 100% | +++ (+, ++, and +++ mean the compound respectively shows 25-49%; 50-74%; or 75-100% viability to cells) | +++ (+, ++, and +++ mean the compound respectively shows 25-49%; 50-74%; or 75-100% viability to cells) | Remaining (NCF = 60 min) [1]: 116.2%; Remaining (T = 60 min) [1]: 6.3%; CLint scaled ([1]; mouse, liver microsomes): < 23.1 mL/min/kg; half-life ([1]; mouse, liver microsomes): > 185 min; microsomal CLint ([1]; mouse, liver microsomes): < 7.5 µL/min/mg
13 | Cn1ccc(-c2cc(Cl)c(Cl)c3c2c2c(n3C)CCN(C(=O)C(C)(C)O)C2)n1 [Compound 5] |  | 0 to 24% | < 24% | < 24% | < 24% | < 24% | 25 to 49% | 75 to 100% | +++ (+, ++, and +++ mean the compound respectively shows 25-49%; 50-74%; or 75-100% viability to cells) | +++ (+, ++, and +++ mean the compound respectively shows 25-49%; 50-74%; or 75-100% viability to cells) | 
14 | CC(C)(N)C(=O)N1CCc2[nH]c3c(Cl)c(Cl)cc(-c4cc[nH]n4)c3c2C1 [Compound 20] |  | 0 to 24% | 75 to 100% | 75 to 100% | 50 to 74% | 75 to 100% | 25 to 49% | 75 to 100% | +++ (+, ++, and +++ mean the compound respectively shows 25-49%; 50-74%; or 75-100% viability to cells) | +++ (+, ++, and +++ mean the compound respectively shows 25-49%; 50-74%; or 75-100% viability to cells) | 
15 | NCC(=O)N1CCc2c(sc3c(Cl)c(Cl)cc(-c4ccco4)c23)C1 [Compound 80] | 25 to 49% | 75 to 100% | 50 to 74% | 75 to 100% | 50 to 74% | 75 to 100% | 25 to 49% | 75 to 100% | +++ (+, ++, and +++ mean the compound respectively shows 25-49%; 50-74%; or 75-100% viability to cells) | − (Cell viability <24%, in THP1 cells is expressed as “−”) | 
16 | Cc1csc(-c2cc(Cl)c(Cl)c3sc4c(c23)CCN(C(=O)CN)C4)n1 [Compound 91] | 0 to 24% | 50 to 74% | 25 to 49% |  | 50 to 74% |  | 25 to 49% | 50 to 74% | ++ (+, ++, and +++ mean the compound respectively shows 25-49%; 50-74%; or 75-100% viability to cells) | − (Cell viability <24%, in THP1 cells is expressed as “−”) | 
